Data reported in patent US10369187B2, “Peptide regulators of JNK family kinases” (Vanderbilt University, priority 2017, dated 2019).

Test system: MKK4-JNK3 module
Assay: JNK3 phosphorylation by co-expressed MKK4 in cells
Type: cell-based, African green monkey
Details: YFP-T1A co-expressed with MKK4 in COS7 cells
Experimental: To test whether T1A can promote JNK3 phosphorylation by MKKs in cells, MKK4 or MKK7 was co-expressed with YFP-T1A in COS7 cells, using YFP and full-length arrestin-3 as negative and positive controls, respectively (FIG. 2C).
COS-7 African green monkey cells were maintained in DMEM supplemented with 10% heat-inactivated FBS (Invitrogen), penicillin, and streptomycin at 37° C. in a humidified incubator with 5% CO2. The cells were plated at 80-90% confluence and transfected using Lipofectamine 2000 (Invitrogen) according to the manufacturer's instructions. Cells were used 48 h post-transfection and serum-starved overnight before experiments.
COS-7 cells were incubated with phosphatase inhibitors (50 mM NaF and 10 mM Na3VO4) in serum-free medium for 15 min at 37° C.; washed with cold PBS; and lysed with SDS lysis buffer containing 1% SDS, 10 mM Tris (pH7.4), 10 mM NaF, 100 μM Na3VO4, 2 mM EDTA, 2 mM benzamidine and 1 mM PMSF. JNKs activity was assayed by Western blotting using an antibody specific for phosphorylated JNK to detect phosphorylated (active) JNKs^17,20,23. […] Protein was measured using the Bio-Rad Coomassie Blue assay. […] Protein bands were detected by enhanced chemiluminescence (ECL, Pierce), followed by exposure to x-ray film. To quantify phospho-JNKs, serial dilutions of anisomycin (1 μg/ml)-stimulated HEK-A cell lysates were used to ensure that all samples were in linear range. […]

MGEKPGTRVFKKSSPNCKLTVYLGK (bovine) [T1A, first 25 residues of arrestin-3]
JNK3 phosphorylation by MKK4 in cells: necessary and sufficient to promote the signaling
